Laboratory results published in the supplement of paper PMC10307832.

Columns and labels:
Assay in all cases: relative viability (nuclei count vs DMSO), 5 days (fraction); higher = more cells survive
[1] = compound: CC[C@H](C)N1C=C(C2=C(C=C(C=C21)C3=CN=C(C=C3)N4CCNCC4)C(=O)NCC5=C(C=C(NC5=O)C)C)C [GSK126] + C[C@@H](Oc1cc(-c2cnn(C3CCNCC3)c2)cnc1N)c1c(Cl)ccc(F)c1Cl [Crizotinib] (partner 1 µM)
Summary of the method: (§1)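 Relative viability was taken as the ratio of nuclei in treated wells to nuclei in vehicle wells. Lung cancer cell lines in 1536-well plates received compounds by pin tool one day after seeding, either one drug alone or a fixed anchor-drug dose plus five library-drug doses (not always all listed) in √10 steps. Nuclei were counted on 4× images after 5 days of treatment, and values are medians of duplicate plates.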

[2] = compound: CC[C@H](C)N1C=C(C2=C(C=C(C=C21)C3=CN=C(C=C3)N4CCNCC4)C(=O)NCC5=C(C=C(NC5=O)C)C)C [GSK126] + Cc1nc(Nc2ncc(C(=O)Nc3c(C)cccc3Cl)s2)cc(N2CCN(CCO)CC2)n1 [Dasatinib] (partner 0.075 µM)
Summary of the method: as §1

[3] = compound: CC[C@H](C)N1C=C(C2=C(C=C(C=C21)C3=CN=C(C=C3)N4CCNCC4)C(=O)NCC5=C(C=C(NC5=O)C)C)C [GSK126] + CC(C)C[C@H](NC(=O)[C@H](Cc1ccccc1)NC(=O)c1cnccn1)B(O)O [Bortezomib] (partner 0.002 µM)
Summary of the method: as §1

[4] = compound: C1CC(C1)(C(=O)O)C(=O)O.[NH2-].[NH2-].[Pt+2] [Carboplatin] + CC(C)C[C@H](NC(=O)[C@H](Cc1ccccc1)NC(=O)c1cnccn1)B(O)O [Bortezomib] (partner 0.002 µM)
Summary of the method: as §1

## NCI-H1563
[1]; first compound 0.08 µM
  relative viability: 0.922
[1]; first compound 0.253 µM
  relative viability: 0.755
[1]; first compound 0.8 µM
  relative viability: 0.848
[1]; first compound 2.53 µM
  relative viability: 0.78
[1]; first compound 8 µM
  relative viability: 0.718
[2]; first compound 0.08 µM
  relative viability: 0.438
[2]; first compound 0.253 µM
  relative viability: 0.455
[2]; first compound 0.8 µM
  relative viability: 0.461
[2]; first compound 2.53 µM
  relative viability: 0.459
[2]; first compound 8 µM
  relative viability: 0.441
[3]; first compound 0.08 µM
  relative viability: 0.948
[3]; first compound 0.253 µM
  relative viability: 0.924
[3]; first compound 0.8 µM
  relative viability: 0.937
[3]; first compound 2.53 µM
  relative viability: 0.887
[3]; first compound 8 µM
  relative viability: 0.834
[4]; first compound 0.08 µM
  relative viability: 1.02
[4]; first compound 0.253 µM
  relative viability: 0.886
[4]; first compound 0.8 µM
  relative viability: 0.937
[4]; first compound 2.53 µM
  relative viability: 0.876
[4]; first compound 8 µM
  relative viability: 0.77

## NCI-H1703
[1]; first compound 0.08 µM
  relative viability: 0.806
[1]; first compound 0.253 µM
  relative viability: 0.313
[1]; first compound 0.8 µM
  relative viability: 0.42
[1]; first compound 2.53 µM
  relative viability: 0.592
[1]; first compound 8 µM
  relative viability: 0.583
[3]; first compound 0.08 µM
  relative viability: 0.444
[3]; first compound 0.253 µM
  relative viability: 0.339
[3]; first compound 0.8 µM
  relative viability: 0.191
[3]; first compound 2.53 µM
  relative viability: 0.407
[3]; first compound 8 µM
  relative viability: 0.209
[4]; first compound 0.08 µM
  relative viability: 0.494
[4]; first compound 0.253 µM
  relative viability: 0.503
[4]; first compound 0.8 µM
  relative viability: 0.347
[4]; first compound 2.53 µM
  relative viability: 0.425
[4]; first compound 8 µM
  relative viability: 0.34

## NCI-H2170
[1]; first compound 0.08 µM
  relative viability: 1.32
[1]; first compound 0.253 µM
  relative viability: 1.15
[1]; first compound 0.8 µM
  relative viability: 1.16
[1]; first compound 2.53 µM
  relative viability: 1.09
[1]; first compound 8 µM
  relative viability: 1.23
[2]; first compound 0.08 µM
  relative viability: 0.544
[2]; first compound 0.253 µM
  relative viability: 0.533
[2]; first compound 0.8 µM
  relative viability: 0.574
[2]; first compound 2.53 µM
  relative viability: 0.612
[2]; first compound 8 µM
  relative viability: 0.686

## IA-LM
[1]; first compound 0.08 µM
  relative viability: 0.831
[1]; first compound 0.253 µM
  relative viability: 1.12
[1]; first compound 0.8 µM
  relative viability: 0.79
[1]; first compound 2.53 µM
  relative viability: 0.729
[1]; first compound 8 µM
  relative viability: 0.947
[3]; first compound 0.08 µM
  relative viability: 0.98
[3]; first compound 0.253 µM
  relative viability: 0.789
[3]; first compound 0.8 µM
  relative viability: 0.847
[3]; first compound 2.53 µM
  relative viability: 0.796
[3]; first compound 8 µM
  relative viability: 0.788
[4]; first compound 0.08 µM
  relative viability: 0.804
[4]; first compound 0.253 µM
  relative viability: 0.836
[4]; first compound 0.8 µM
  relative viability: 0.633
[4]; first compound 2.53 µM
  relative viability: 0.792
[4]; first compound 8 µM
  relative viability: 0.535

## HCC-44
[1]; first compound 0.08 µM
  relative viability: 0.766
[1]; first compound 0.253 µM
  relative viability: 0.864
[1]; first compound 0.8 µM
  relative viability: 0.788
[1]; first compound 2.53 µM
  relative viability: 0.64
[1]; first compound 8 µM
  relative viability: 0.78
[3]; first compound 0.08 µM
  relative viability: 0.857
[3]; first compound 0.253 µM
  relative viability: 0.972
[3]; first compound 0.8 µM
  relative viability: 0.876
[3]; first compound 2.53 µM
  relative viability: 0.77
[3]; first compound 8 µM
  relative viability: 0.871
[4]; first compound 0.08 µM
  relative viability: 0.968
[4]; first compound 0.253 µM
  relative viability: 0.882
[4]; first compound 0.8 µM
  relative viability: 0.833
[4]; first compound 2.53 µM
  relative viability: 0.864
[4]; first compound 8 µM
  relative viability: 0.785

## SW 900
[2]; first compound 0.08 µM
  relative viability: 0.695
[2]; first compound 0.253 µM
  relative viability: 0.494
[2]; first compound 0.8 µM
  relative viability: 0.622
[2]; first compound 2.53 µM
  relative viability: 0.508
[2]; first compound 8 µM
  relative viability: 0.548

## A549
[1]; first compound 0.08 µM
  relative viability: 0.925
[1]; first compound 0.253 µM
  relative viability: 0.677
[1]; first compound 0.8 µM
  relative viability: 0.709
[1]; first compound 2.53 µM
  relative viability: 0.807
[1]; first compound 8 µM
  relative viability: 0.652

## NCI-H1299
[1]; first compound 0.08 µM
  relative viability: 0.952
[1]; first compound 0.253 µM
  relative viability: 0.959
[1]; first compound 0.8 µM
  relative viability: 0.779
[1]; first compound 2.53 µM
  relative viability: 0.941
[1]; first compound 8 µM
  relative viability: 0.873
[3]; first compound 0.08 µM
  relative viability: 1.03
[3]; first compound 0.253 µM
  relative viability: 1.01
[3]; first compound 0.8 µM
  relative viability: 0.999
[3]; first compound 2.53 µM
  relative viability: 0.969
[3]; first compound 8 µM
  relative viability: 1.06
[4]; first compound 0.08 µM
  relative viability: 1.07
[4]; first compound 0.253 µM
  relative viability: 1.01
[4]; first compound 0.8 µM
  relative viability: 1.07
[4]; first compound 2.53 µM
  relative viability: 0.982
[4]; first compound 8 µM
  relative viability: 0.902

## NCI-H1623
[2]; first compound 0.08 µM
  relative viability: 0.529
[2]; first compound 0.253 µM
  relative viability: 0.567
[2]; first compound 0.8 µM
  relative viability: 0.602
[2]; first compound 2.53 µM
  relative viability: 0.482
[2]; first compound 8 µM
  relative viability: 0.5

## NCI-H2342
[2]; first compound 0.08 µM
  relative viability: 0.358
[2]; first compound 0.253 µM
  relative viability: 0.288
[2]; first compound 0.8 µM
  relative viability: 0.312
[2]; first compound 2.53 µM
  relative viability: 0.314
[2]; first compound 8 µM
  relative viability: 0.315

## NCI-H1793
[2]; first compound 0.08 µM
  relative viability: 0.441
[2]; first compound 0.253 µM
  relative viability: 0.373
[2]; first compound 0.8 µM
  relative viability: 0.356
[2]; first compound 2.53 µM
  relative viability: 0.431
[2]; first compound 8 µM
  relative viability: 0.405

## NCI-H1395
[2]; first compound 0.08 µM
  relative viability: 0.464
[2]; first compound 0.253 µM
  relative viability: 0.439
[2]; first compound 0.8 µM
  relative viability: 0.406
[2]; first compound 2.53 µM
  relative viability: 0.399
[2]; first compound 8 µM
  relative viability: 0.427

## NCI-H522
[2]; first compound 0.08 µM
  relative viability: 0.871
[2]; first compound 0.253 µM
  relative viability: 0.699
[2]; first compound 0.8 µM
  relative viability: 0.794
[2]; first compound 2.53 µM
  relative viability: 1.02
[2]; first compound 8 µM
  relative viability: 0.775

## EBC-1
[1]; first compound 0.08 µM
  relative viability: 0.204
[1]; first compound 0.253 µM
  relative viability: 0.203
[1]; first compound 0.8 µM
  relative viability: 0.182
[1]; first compound 2.53 µM
  relative viability: 0.193
[1]; first compound 8 µM
  relative viability: 0.173
[3]; first compound 0.08 µM
  relative viability: 0.61
[3]; first compound 0.253 µM
  relative viability: 0.542
[3]; first compound 0.8 µM
  relative viability: 0.529
[3]; first compound 2.53 µM
  relative viability: 0.563
[3]; first compound 8 µM
  relative viability: 0.411
[4]; first compound 0.08 µM
  relative viability: 0.528
[4]; first compound 0.253 µM
  relative viability: 0.507
[4]; first compound 0.8 µM
  relative viability: 0.551
[4]; first compound 2.53 µM
  relative viability: 0.518
[4]; first compound 8 µM
  relative viability: 0.438

## Calu-6
[1]; first compound 0.08 µM
  relative viability: 0.906
[1]; first compound 0.253 µM
  relative viability: 0.749
[1]; first compound 0.8 µM
  relative viability: 0.806
[1]; first compound 2.53 µM
  relative viability: 0.844
[1]; first compound 8 µM
  relative viability: 0.759
[3]; first compound 0.08 µM
  relative viability: 1.18
[3]; first compound 0.253 µM
  relative viability: 0.949
[3]; first compound 0.8 µM
  relative viability: 1.1
[3]; first compound 2.53 µM
  relative viability: 1.2
[3]; first compound 8 µM
  relative viability: 1.04
[4]; first compound 0.08 µM
  relative viability: 0.927
[4]; first compound 0.253 µM
  relative viability: 0.974
[4]; first compound 0.8 µM
  relative viability: 0.925
[4]; first compound 2.53 µM
  relative viability: 0.823
[4]; first compound 8 µM
  relative viability: 0.496

## LK-2
[1]; first compound 0.08 µM
  relative viability: 0.282
[1]; first compound 0.253 µM
  relative viability: 0.224
[1]; first compound 0.8 µM
  relative viability: 0.243
[1]; first compound 2.53 µM
  relative viability: 0.252
[1]; first compound 8 µM
  relative viability: 0.206
[2]; first compound 0.08 µM
  relative viability: 0.361
[2]; first compound 0.253 µM
  relative viability: 0.336
[2]; first compound 0.8 µM
  relative viability: 0.196
[2]; first compound 2.53 µM
  relative viability: 0.41
[2]; first compound 8 µM
  relative viability: 0.259
